In article PMC7335359, “Design and Synthesis of Dihydroxamic Acids as HDAC6/8/10 Inhibitors” (Chemmedchem, 2020):

How the values were obtained:
HDAC6 = target: T1, HDAC6 (Homo sapiens, UniProt Q9UBN7); test: HDAC-Glo I/II enzymatic assay, HDAC6; assay type: biochemical; settings: read-out: HDAC6 pIC50 (converted)
T1 construct: purchased BPS Bioscience 50006
T1 sequence (Q9UBN7 1-1215): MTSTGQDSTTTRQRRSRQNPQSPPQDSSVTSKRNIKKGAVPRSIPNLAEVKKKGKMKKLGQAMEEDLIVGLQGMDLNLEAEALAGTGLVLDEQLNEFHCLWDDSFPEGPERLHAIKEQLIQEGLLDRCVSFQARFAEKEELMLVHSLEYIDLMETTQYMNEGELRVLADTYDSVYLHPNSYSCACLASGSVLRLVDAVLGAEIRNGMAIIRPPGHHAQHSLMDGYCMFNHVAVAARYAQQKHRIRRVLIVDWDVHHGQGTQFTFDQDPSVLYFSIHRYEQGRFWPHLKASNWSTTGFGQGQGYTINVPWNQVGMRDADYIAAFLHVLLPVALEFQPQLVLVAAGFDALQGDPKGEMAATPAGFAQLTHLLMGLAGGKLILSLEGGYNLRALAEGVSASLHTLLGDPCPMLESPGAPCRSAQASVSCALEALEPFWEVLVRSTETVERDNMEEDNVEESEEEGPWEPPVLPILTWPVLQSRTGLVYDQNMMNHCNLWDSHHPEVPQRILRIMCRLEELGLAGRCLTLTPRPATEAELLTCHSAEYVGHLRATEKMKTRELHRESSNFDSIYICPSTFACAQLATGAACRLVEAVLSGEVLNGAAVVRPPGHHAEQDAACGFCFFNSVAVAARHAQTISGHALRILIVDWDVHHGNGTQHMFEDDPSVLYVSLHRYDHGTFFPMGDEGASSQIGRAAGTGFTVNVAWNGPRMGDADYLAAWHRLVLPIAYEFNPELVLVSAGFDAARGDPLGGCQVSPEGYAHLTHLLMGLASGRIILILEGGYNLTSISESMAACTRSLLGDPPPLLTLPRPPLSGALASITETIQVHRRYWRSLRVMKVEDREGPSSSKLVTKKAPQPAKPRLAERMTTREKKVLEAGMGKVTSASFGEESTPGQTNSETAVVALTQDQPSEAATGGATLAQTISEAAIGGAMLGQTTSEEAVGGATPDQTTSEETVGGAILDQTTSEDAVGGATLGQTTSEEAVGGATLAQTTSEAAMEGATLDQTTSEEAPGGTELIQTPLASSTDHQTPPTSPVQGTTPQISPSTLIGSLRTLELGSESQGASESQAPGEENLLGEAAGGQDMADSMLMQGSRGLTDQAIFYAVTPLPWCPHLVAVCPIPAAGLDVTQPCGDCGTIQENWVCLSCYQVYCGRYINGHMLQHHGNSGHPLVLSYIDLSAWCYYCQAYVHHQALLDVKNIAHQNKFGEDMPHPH
Experimental: (§1) Inhibitors were tested at eight serial dilutions in triplicate ranging from 50 μM–86,7 pM (HDAC6) or 100 μM–8,67 nM (HDAC1,2,3,8). Drug dosing was performed from 10 mM and 0.1 mM DMSO stock solutions with a D300e Digital Dispenser (Tecan). HDACs (7 ng/mL for HDAC1, 10 ng/mL for HDAC2, 200 ng/mL for HDAC3/Ncor2 complex, 100 ng/mL for HDAC6, 200 ng/mL for HDAC8) and inhibitors were incubated together for 30 min at room temperature. After addition of the HDAC‐Glo™ I/II reagent, plates were shaken (800 rpm orbital shaker, 30 s), centrifuged (300 g, 1 min) and incubated at room temperature for 30 min. Luminescence was detected with a CLARIOstar (BMG Labtech) plate reader.

HDAC3/NcoR2 complex = target: T2, HDAC3/NcoR2 complex (Homo sapiens, UniProt O15379); test: HDAC-Glo I/II enzymatic assay, HDAC3; assay type: biochemical; settings: read-out: HDAC3 pIC50 (converted)
T2 construct: purchased BPS Bioscience 50003
Experimental: as §1

T2 sequence (O15379 whole entry): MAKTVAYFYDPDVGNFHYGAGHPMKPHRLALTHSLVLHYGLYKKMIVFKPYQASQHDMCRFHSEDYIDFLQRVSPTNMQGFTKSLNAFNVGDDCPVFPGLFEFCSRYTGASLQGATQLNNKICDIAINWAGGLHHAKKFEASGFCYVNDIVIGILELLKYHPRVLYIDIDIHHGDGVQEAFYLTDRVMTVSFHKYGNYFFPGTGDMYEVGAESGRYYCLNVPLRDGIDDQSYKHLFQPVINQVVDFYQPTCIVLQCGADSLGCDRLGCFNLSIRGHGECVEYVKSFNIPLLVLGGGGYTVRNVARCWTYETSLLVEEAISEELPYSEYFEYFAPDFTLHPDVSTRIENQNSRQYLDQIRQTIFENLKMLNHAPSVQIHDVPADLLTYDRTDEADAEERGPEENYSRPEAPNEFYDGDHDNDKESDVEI
T2 sequence (Q9Y618 395-489 partner limits assumed): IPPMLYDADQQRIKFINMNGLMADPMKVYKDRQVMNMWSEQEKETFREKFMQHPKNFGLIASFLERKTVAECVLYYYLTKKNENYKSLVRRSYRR

Compound	IC50 (HDAC6)	IC50 (HDAC3/NcoR2 complex)
O=C(NO)c1ccc(Cc2c[nH]c3ccc(C(=O)NO)cc23)cc1 [Compound 3d]	22.4 nM	6460 nM
O=C(NO)c1ccc(Cn2ncc3ccc(C(=O)NO)cc32)cc1 [Compound 3f]	15.1 nM	1320 nM
CN(C)Cc1nn(Cc2ccc(C(=O)NO)cc2)c2cc(C(=O)NO)ccc12 [Compound 3g]	30.2 nM	6610 nM
O=C(NO)c1ccc(Cn2ccc3ccc(C(=O)NO)cc32)cc1 [Compound 3a]	18.2 nM	5500 nM
CN1CCc2c(c3ccc(C(=O)NO)cc3n2Cc2ccc(C(=O)NO)cc2)C1 [Compound 3c]	47.9 nM	13500 nM
CN(C)Cc1cn(Cc2ccc(C(=O)NO)cc2)c2cc(C(=O)NO)ccc12 [Compound 3b]	75.9 nM	6920 nM
CN(C)CCn1cc(Cc2ccc(C(=O)NO)cc2)c2cc(C(=O)NO)ccc21 [Compound 3e]	44.7 nM	6610 nM
